# Test results taken from US5652250A, “N-substituted β-aryl- and β-heteroaryl-α-cyanoacrylamide derivatives and process for their preparation” (Pharmacia S.p.A., priority 1994, dated 1997).
# Experiments:
# K562 cells = assay: K562 Cell Growth Inhibition Assay; assay type: cell-based; settings: K562 human myelogenous leukemia cells, 72 h
# Description: K562 cells, a human myelogenous leukemia cell line, were seeded into a 24 wells tissue culture plate (Falcon 3047) (10000/well) in the presence of increasing concentrations of the compounds. After 72 h, cells were harvested and were counted using a cell counter (Coulter Counter--ZM). The percent of inhibition was evaluated in respect to the untreated control cells.
# [1] = molecular target: p45 v-abl tyrosine kinase; assay: p45 v-abl Kinase Assay ((Val^5)-Angiotensin II phosphorylation); assay type: biochemical, Abelson murine leukemia virus; settings: (Val^5)-Angiotensin II 2 mM, ATP 50 μM, pH 8.0, 30° C., read-out: Inhibition of p45 v-abl kinase IC50
# Description: The enzyme used in our test was the p45 v-abl tyrosine kinase which represents the catalytic domain of the Abelson tyrosine kinase (isolated from the Abelson murine leukemia virus). The p45 v-abl kinase was produced and isolated as described by Wang et al. in J. Biol. Chem. 260, 64 (1985) and by Ferguson et al. in J. Biol. Chem. 260, 3652 (1985) and in Biochem. J. 257, 321 (1989).
# (Val^5)-Angiotensin II phosphorylation was performed by incubation with 40 ng of purified abl-kinase and (γ^32 P)-ATP, in 50 μl of buffer containing Tris-HCl 25 mM, pH 8.0, MgCl2 10 mM and dithiothreitol 0.1 mM (kinase buffer). The reaction mixture was incubated for the indicated time at 30° C. and the reaction stopped by adding 50 μl of 5% trichloroacetic acid. After a brief incubation on ice, tubes were centrifuged. The supernatants were spotted on phosphocellulose paper squares (Whatman P-81) and washed extensively in acetic acid. The radioactivity bound to dried phosphocellulose squares was measured in a liquid scintillation counter. IC50 values were calculated from triplicate determinations of each experimental point. Each inhibitor was tested at concentrations ranging from […] in the presence of fixed concentrations of peptide (2 mM) and ATP (50 μM).
smiles,measurement,setting,value
N#CC(=Cc1ccc(O)c2ncccc12)C(=O)Nc1ccccc1 [N-phenyl β-(8-hydroxy-5-quinolyl)-α-cyanoacrylamide],IC50,K562 cells,660 nM
same,IC50,[1],3400 nM
